According to article PMC6315694, “Synthesis of Pseudellone Analogs and Characterization as Novel T-type Calcium Channel Blockers” (Marine Drugs, 2018):
Where two headings read alike, the source gives them in different places.

Columns and labels:
Format in all cases: cell-based
[1] = target: T1, recombinant hCaV3.1 channels (Homo sapiens, UniProt O43497); experiment: Whole-cell patch-clamp QPatch 16 X, CaV3.1
T1 construct: host or cells: probably the CHO line expressing CaV3.1 (inferred: the transient HEK293T cells are assigned to FLIPR)
Protocol: The human embryonic kidney 293 (HEK 293) cell lines (from Emmanuel Bourinet, Montpellier, France) stably expressing CaV3.2 or CaV3.3 were cultured under 5% carbon dioxide at 37 °C in Dulbecco’s Modified Eagle Medium (DMEM) Glutamax (Gibco, Life Technologies, Carlsbad, CA, USA) supplemented with 10% (v/v) fetal bovine serum (FBS), 100 U/mL penicillin, 100 μg/mL streptomycin (Gibco, Life Technologies), and 750 μg/mL geneticin (G418) (Gibco, Life Technologies). The Chinese Hamster Ovary (CHO) cell lines (Emmanuel Bourinet, Montpellier, France) expressing CaV3.1 were cultured under 5% carbon dioxide at 37 °C in Alpha Minimum Essential Media (MEM) Glutamax (Gibco, Life Technologies), supplemented with 10% (v/v) fetal bovine serum (FBS) and 300 μg/mL geneticin (G418) (Gibco, Life Technologies). The human neuroblastoma SH-SY5 Y cells (Victor Diaz, Goettingen, Germany) were cultured under 5% carbon dioxide at 37 °C in RPMI 1640 antibiotic-free medium (Invitrogen, Carlsbad, CA, USA), supplemented with 15% FBS and 2 mM GlutaMAX™ (Invitrogen). D-PBS (Gibco, Life Technologies) was used to wash the cells, and 0.25% Trypsin-EDTA (Gibco, Life Technologies) was used to detach cells from the flask surface. They were split in a ratio of 1:5 (ideally 1000 cells/cm^2) when they reached 70%–80% confluence (every 2–3 days). Transiently transfected CaV3.1HEK293 T cells were used in FLIPR Assays. HEK 293 T cells were cultured under 5% carbon dioxide at 37 °C in DMEM supplemented with 10% (v/v) FBS. D-PBS was used to wash the cells, and 0.25% Trypsin-EDTA was used to detach cells from the flask surface. The cells were split and seeded at 6 million cells per T175 flask, to reach 70%–80% confluence after 24 h. The next day, 12 μg DNA of human CaV3.1 was incubated in 900 μL serum-free DMEM with 36 μL FuGENE HD transfection reagent (Promega Corporation, Madison, WI, US) (1:3 DNA/Fugene ratio) for 20 min, and then the mixture was added into the cell flask slowly, drop by drop. […]
(§1) Data were plotted and analyzed using GraphPad Prism v7.0 (GraphPad Software Inc., San Diego, CA, USA). […]

[2] = target: recombinant hCaV3.2 channels (Homo sapiens, UniProt O95180); experiment: Whole-cell patch-clamp QPatch 16 X, CaV3.2
Chain of recombinant hCaV3.2 channels (O95180 whole entry): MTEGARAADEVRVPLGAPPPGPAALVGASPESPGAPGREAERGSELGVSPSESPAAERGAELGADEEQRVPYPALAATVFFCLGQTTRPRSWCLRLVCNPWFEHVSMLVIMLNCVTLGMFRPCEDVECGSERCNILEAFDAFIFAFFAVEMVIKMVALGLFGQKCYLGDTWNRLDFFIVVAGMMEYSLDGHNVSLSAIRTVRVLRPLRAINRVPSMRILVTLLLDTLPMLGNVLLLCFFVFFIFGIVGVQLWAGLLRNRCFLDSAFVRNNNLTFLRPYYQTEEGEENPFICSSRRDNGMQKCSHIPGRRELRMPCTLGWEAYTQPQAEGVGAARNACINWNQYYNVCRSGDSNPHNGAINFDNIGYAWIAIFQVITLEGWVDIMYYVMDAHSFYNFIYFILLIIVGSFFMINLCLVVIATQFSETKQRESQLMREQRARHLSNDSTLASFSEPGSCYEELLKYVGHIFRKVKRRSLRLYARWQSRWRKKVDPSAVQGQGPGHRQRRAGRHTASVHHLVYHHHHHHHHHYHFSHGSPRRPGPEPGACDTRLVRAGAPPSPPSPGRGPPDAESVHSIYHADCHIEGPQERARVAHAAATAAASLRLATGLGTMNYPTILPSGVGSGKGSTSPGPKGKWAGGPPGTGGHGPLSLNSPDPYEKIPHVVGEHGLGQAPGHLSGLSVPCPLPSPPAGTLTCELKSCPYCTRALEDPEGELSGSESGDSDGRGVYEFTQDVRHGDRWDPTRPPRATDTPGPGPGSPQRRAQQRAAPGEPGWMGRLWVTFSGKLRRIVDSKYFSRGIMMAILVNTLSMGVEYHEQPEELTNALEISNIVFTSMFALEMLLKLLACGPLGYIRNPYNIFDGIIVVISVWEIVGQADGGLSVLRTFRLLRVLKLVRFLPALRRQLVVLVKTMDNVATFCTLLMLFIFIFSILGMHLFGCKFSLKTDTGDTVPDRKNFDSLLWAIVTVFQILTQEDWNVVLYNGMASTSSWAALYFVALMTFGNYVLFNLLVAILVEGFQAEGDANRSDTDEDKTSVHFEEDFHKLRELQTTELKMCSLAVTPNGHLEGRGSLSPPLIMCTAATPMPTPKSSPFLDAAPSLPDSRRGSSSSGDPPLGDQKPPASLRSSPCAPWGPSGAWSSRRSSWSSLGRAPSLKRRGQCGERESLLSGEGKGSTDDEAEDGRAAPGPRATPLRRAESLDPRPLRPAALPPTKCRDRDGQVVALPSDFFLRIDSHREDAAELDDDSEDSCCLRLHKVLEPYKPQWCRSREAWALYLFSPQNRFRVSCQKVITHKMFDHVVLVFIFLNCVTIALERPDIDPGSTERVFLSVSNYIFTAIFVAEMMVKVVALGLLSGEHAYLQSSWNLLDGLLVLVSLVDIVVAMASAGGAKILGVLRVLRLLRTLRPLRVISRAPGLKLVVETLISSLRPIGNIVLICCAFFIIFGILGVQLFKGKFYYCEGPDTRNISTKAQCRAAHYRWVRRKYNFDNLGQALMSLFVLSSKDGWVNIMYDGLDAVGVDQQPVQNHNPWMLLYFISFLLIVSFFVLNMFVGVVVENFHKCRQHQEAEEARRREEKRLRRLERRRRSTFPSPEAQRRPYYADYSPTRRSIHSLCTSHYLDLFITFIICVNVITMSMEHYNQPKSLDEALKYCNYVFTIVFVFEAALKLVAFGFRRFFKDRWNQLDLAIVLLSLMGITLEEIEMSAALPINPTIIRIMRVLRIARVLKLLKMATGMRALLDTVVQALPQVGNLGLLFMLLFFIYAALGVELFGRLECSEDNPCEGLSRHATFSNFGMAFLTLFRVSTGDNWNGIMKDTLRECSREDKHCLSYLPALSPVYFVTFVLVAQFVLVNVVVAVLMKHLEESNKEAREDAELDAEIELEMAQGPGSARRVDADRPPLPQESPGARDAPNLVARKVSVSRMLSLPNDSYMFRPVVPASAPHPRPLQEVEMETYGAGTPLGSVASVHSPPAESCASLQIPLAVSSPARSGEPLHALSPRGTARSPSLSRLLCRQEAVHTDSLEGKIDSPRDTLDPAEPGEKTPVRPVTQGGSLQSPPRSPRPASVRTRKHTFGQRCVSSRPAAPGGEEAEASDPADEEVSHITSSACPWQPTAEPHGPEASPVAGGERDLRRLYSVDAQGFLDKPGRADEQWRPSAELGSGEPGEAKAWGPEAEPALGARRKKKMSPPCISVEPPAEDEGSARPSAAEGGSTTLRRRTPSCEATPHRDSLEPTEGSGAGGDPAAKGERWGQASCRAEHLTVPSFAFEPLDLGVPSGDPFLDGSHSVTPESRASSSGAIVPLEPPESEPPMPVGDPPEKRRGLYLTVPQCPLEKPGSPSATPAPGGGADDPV
Protocol: (§2) The human embryonic kidney 293 (HEK 293) cell lines (from Emmanuel Bourinet, Montpellier, France) stably expressing CaV3.2 or CaV3.3 were cultured under 5% carbon dioxide at 37 °C in Dulbecco’s Modified Eagle Medium (DMEM) Glutamax (Gibco, Life Technologies, Carlsbad, CA, USA) supplemented with 10% (v/v) fetal bovine serum (FBS), 100 U/mL penicillin, 100 μg/mL streptomycin (Gibco, Life Technologies), and 750 μg/mL geneticin (G418) (Gibco, Life Technologies). The Chinese Hamster Ovary (CHO) cell lines (Emmanuel Bourinet, Montpellier, France) expressing CaV3.1 were cultured under 5% carbon dioxide at 37 °C in Alpha Minimum Essential Media (MEM) Glutamax (Gibco, Life Technologies), supplemented with 10% (v/v) fetal bovine serum (FBS) and 300 μg/mL geneticin (G418) (Gibco, Life Technologies). The human neuroblastoma SH-SY5 Y cells (Victor Diaz, Goettingen, Germany) were cultured under 5% carbon dioxide at 37 °C in RPMI 1640 antibiotic-free medium (Invitrogen, Carlsbad, CA, USA), supplemented with 15% FBS and 2 mM GlutaMAX™ (Invitrogen). D-PBS (Gibco, Life Technologies) was used to wash the cells, and 0.25% Trypsin-EDTA (Gibco, Life Technologies) was used to detach cells from the flask surface. They were split in a ratio of 1:5 (ideally 1000 cells/cm^2) when they reached 70%–80% confluence (every 2–3 days). Transiently transfected CaV3.1HEK293 T cells were used in FLIPR Assays. HEK 293 T cells were cultured under 5% carbon dioxide at 37 °C in DMEM supplemented with 10% (v/v) FBS. D-PBS was used to wash the cells, and 0.25% Trypsin-EDTA was used to detach cells from the flask surface. The cells were split and seeded at 6 million cells per T175 flask, to reach 70%–80% confluence after 24 h. The next day, 12 μg DNA of human CaV3.1 was incubated in 900 μL serum-free DMEM with 36 μL FuGENE HD transfection reagent (Promega Corporation, Madison, WI, US) (1:3 DNA/Fugene ratio) for 20 min, and then the mixture was added into the cell flask slowly, drop by drop. After the transfection, the cells were cultured under 5% carbon dioxide at 37 °C for 24 h and then moved to a 28 °C incubator.
Whole-cell patch-clamp experiments were performed on an automated electrophysiology platform QPatch 16 X (Sophion Bioscience A/S, Ballerup, Denmark) in single-hole configuration using 16-channel planar patch chip QPlates (Sophion Bioscience A/S). The extracellular recording solution contained, in mM: TEACl 157, MgCl2 0.5, CaCl2 5, and HEPES 10; pH 7.4 adjusted with TEAOH; and osmolarity 320 mOsm. The intracellular pipette solution contained, in mM: CsF 140, EGTA 1, HEPES 10, and NaCl 10; pH 7.2 adjusted with CsOH; and osmolarity 325 mOsm. […]
as §1

CaV3.3 = CaV3.3 (Homo sapiens, UniProt Q9P0X4); experiment: T-type calcium channel window current FLIPR assay, CaV3.3
Chain of CaV3.3 (Q9P0X4 whole entry): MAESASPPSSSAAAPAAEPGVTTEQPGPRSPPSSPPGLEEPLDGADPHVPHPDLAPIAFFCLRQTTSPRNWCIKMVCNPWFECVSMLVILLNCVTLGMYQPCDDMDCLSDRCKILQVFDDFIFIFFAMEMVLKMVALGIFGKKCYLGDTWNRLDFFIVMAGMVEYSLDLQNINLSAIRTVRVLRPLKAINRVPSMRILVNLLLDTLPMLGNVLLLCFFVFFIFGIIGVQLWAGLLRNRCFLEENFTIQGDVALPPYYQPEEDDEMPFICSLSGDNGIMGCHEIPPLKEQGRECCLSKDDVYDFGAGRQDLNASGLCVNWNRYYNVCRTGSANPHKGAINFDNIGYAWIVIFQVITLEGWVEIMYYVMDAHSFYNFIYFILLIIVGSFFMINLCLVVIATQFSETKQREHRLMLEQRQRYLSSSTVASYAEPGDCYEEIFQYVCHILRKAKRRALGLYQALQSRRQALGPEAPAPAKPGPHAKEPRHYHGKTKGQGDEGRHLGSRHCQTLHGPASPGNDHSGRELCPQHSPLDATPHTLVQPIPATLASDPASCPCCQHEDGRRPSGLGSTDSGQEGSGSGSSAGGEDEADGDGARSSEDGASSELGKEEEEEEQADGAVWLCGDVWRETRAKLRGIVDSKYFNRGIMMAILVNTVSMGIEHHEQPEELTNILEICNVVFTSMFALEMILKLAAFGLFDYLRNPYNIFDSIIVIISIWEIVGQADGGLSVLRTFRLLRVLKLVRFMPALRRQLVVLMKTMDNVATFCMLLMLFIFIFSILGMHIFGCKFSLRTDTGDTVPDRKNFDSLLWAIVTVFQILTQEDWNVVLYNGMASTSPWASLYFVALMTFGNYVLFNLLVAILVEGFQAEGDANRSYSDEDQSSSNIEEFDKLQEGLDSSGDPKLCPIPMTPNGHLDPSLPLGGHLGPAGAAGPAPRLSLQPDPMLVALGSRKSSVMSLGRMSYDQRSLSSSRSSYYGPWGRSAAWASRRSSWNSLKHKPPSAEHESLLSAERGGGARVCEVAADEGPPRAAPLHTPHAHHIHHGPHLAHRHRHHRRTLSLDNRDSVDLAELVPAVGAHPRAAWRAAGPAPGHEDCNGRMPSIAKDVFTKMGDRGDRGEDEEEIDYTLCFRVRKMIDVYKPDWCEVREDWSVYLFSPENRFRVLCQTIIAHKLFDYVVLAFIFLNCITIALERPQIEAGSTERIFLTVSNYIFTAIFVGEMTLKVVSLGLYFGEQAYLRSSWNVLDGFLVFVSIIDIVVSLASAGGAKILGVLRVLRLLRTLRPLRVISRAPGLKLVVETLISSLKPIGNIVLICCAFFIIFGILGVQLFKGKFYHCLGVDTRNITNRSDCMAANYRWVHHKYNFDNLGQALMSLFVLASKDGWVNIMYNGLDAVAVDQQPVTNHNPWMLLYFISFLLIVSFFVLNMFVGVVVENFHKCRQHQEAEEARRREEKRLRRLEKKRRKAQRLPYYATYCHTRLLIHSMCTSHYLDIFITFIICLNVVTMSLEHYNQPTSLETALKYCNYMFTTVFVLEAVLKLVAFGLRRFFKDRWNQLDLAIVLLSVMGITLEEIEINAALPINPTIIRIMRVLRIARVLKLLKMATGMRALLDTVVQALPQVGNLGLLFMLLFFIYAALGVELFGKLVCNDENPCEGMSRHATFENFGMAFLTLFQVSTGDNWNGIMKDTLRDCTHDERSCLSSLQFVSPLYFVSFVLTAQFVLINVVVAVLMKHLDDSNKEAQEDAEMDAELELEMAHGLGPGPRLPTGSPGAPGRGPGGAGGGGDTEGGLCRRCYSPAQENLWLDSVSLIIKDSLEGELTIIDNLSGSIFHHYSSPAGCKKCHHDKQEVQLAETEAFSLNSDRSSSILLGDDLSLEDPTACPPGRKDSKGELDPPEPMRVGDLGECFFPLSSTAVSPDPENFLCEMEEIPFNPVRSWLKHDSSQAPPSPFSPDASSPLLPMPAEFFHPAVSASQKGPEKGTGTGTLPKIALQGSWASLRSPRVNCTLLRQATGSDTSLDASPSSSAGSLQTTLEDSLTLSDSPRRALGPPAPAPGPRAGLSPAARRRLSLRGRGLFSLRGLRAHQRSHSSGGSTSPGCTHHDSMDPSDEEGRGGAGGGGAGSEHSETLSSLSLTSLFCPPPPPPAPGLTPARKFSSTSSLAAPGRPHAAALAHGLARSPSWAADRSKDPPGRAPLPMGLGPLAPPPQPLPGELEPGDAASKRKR
Protocol: as §2
HEK 293 cells stably expressing CaV3.2 or CaV3.3 were seeded into 384-well black wall clear bottom plates (Corning, Lowell, MA, USA) at a density of 30,000 cells per well. Transiently transfected CaV3.1HEK293 T cells were seeded into 384-well black wall clear bottom plates at a density of 60,000 cells per well. Once the cells reached 90%–95% confluence after 24 h, the media were removed from the wells and replaced with 20 μL of 10% calcium 4 dye (Molecular Devices, Sunnyvale, CA, USA) in HBSS-HEPES (containing 5 mM KCl, 10 mM HEPES, 140 mM NaCl, 10 mM glucose, and 0.5 mM CaCl2, pH 7.4) with 0.1% bovine serum albumin (BSA). The cells were incubated for 30 min at 37 °C in the presence of 5% carbon dioxide. Each well on the reagent plates for the first addition contained 15 μL different concentrations of compounds dissolved in HBSS-HEPES containing 0.1% BSA and <0.1% DMSO and was incubated for 20 min after loading. Positive and negative controls contained 15 μL of HBSS-HEPES (0.1% BSA) alone. The plates were placed in the FLIPR^TETRA (Molecular Devices, Sunnyvale, CA, USA) programmed to measure maximum fluorescence intensity following a second addition of the agonist 5 mM CaCl2. The data acquisition parameters were adjusted as follows: Baseline fluorescence of 1500–2000 arbitrary fluorescence units (AFU), emission wavelength of 515–575 nm, and excitation wavelength of 470–495 nm. HBSS-HEPES (0.1% BSA) was used in the second addition as a negative control. One fluorescence reading was taken before the second addition. Then the fluorescence readings were recorded every two seconds for 300 s. Raw fluorescence readings in the form of relative light units were converted to response over baseline using ScreenWorks® (Molecular Devices, version 3.2.0.14) software.
Data were plotted and analyzed using GraphPad Prism v7.0 (GraphPad Software Inc., San Diego, CA, USA).

Potency for CaV3.1-activated currents relative to CaV3.1 window currents ([1]; QPatch versus FLIPR, better for activated currents): > 7 fold
Emax ([1]; QPatch whole-cell, partial block, read-out: Emax value, block of CaV3.1 current): 82.8 ± 2.55%
Voltage-dependence of steady-state inactivation of CaV3.1, in words ([1]; QPatch, in the presence of compound): not significantly shifted
Half-maximal steady-state inactivation V50 of CaV3.2 in the presence of compound ([2]; 0.6 µM compound, control V50 −65.40 ± 1.91 mV (n = 9), n = 4–5): −76.36 ± 1.56 mV
Emax ([2]; QPatch whole-cell, full inhibition, read-out: Emax value, inhibition of CaV3.2 whole-cell current): ≥ 95%
IC50 ([2]; QPatch, 200 ms steps to Vmax (−20 mV) from holding −90 mV, n = 4–5, mean ± SEM, read-out: IC50 CaV3.2 whole-cell current): 8.82 ± 2.3 µM
Shift of half-maximal inactivation V50 of CaV3.2 to hyperpolarized potentials ([2]; steady-state inactivation, 0.6 µM compound, versus control): 11 mV
IC50 (CaV3.3; FLIPR window current assay, HEK 293 stable, N = 3, mean ± SEM, read-out: IC50 CaV3.3 (LVA CaVs)): 3.81 ± 1.08 µM
IC50 (CaV3.3; FLIPR, representative curve, n = 4, read-out: IC50 of the representative concentration-response curve, CaV3.3 window current): 3.05 µM
Potency at CaV3.3 window current relative to potency at HVA CaVs (CaV3.3; FLIPR, CaV3.3 better than HVA CaVs): > 8 fold
SMILES: COC(=O)[C@H](Cc1c[nH]c2ccccc12)NC(=O)C(C)(c1c[nH]c2ccccc12)c1c[nH]c2ccccc12 [Compound 3, Methyl (2,2-di(1H-indol-3-yl)propanoyl)-L-tryptophanate]
